Tested on: Leptosphaeria nodorum
Test: glume blotch, spray or stem-base drench of test plants, infection visually estimated; also: key: 1 is little or no control; 2 is moderate control; 3 is good to total control
Format: in vivo
Conditions: concentration of 500 ppm (w/v) or less

| Compound | score of 1 to 3 (control, degree of infection visually estimated) |
| --- | --- |
| Cc1cc(C(C#N)c2cccc(C(F)(F)F)c2)c(C)cc1N=CN(C)C (stereo not drawn) [Compound 214] | 2 |
| CCN(C)C=Nc1cc(C)c(Oc2cccc(C(C)(C)C)c2)cc1C [Compound 100] | 2 |
| CC(=Nc1cc(C)c(Oc2cccc(C(F)(F)F)c2)cc1C)N(C)C [Compound 2] | 2 |
| CCNC=Nc1cc(C)c(Oc2cccc(C(F)(F)F)c2)cc1C [Compound 59] | 2 |
| Cc1cc(Oc2cccc(C(F)(F)F)c2)c(C)cc1N=CN(C)C [Compound 1] | 2 |
| Cc1cc(OCc2ccc(OCC3CCCCC3)cc2)c(C)cc1N=CN(C)C [Compound 290] | 2 |
| Cc1cc(C)nc(Oc2cccc(Oc3cc(C)c(N=CN(C)C)cc3C)c2)n1 [Compound 369] | 2 |
| Cc1cc(Oc2cccc(C(F)(F)F)c2)c(C)cc1N=CN1CCCCC1 [Compound 43] | 2 |
| CC(=Nc1cc(C)c(SCc2cccc(C(F)(F)F)c2)cc1C)N(C)C [Compound 5] | 2 |
| CCN(C)C=Nc1cc(C)c(Oc2cccc(OC)c2)cc1C [Compound 312] | 2 |
| CCN(C)C=Nc1cc(C)c(Oc2ccc(Cl)c(C(F)(F)F)c2)cc1C [Compound 364] | 2 |
| COc1ccccc1Oc1cc(C)c(N=CN(C)C)cc1C [Compound 27] | 2 |
| CCC(C)(C)c1ccc(Oc2cc(C)c(N=CN(C)C)cc2C)cc1 [Compound 170] | 2 |
| Cc1cc(Oc2cccc(C3CCCC3)c2)c(C)cc1N=CN(C)C [Compound 378] | 2 |
| CCN(C)C=Nc1cc(C)c(Oc2ccc(C(C)(C)C)cc2)cc1C [Compound 326] | 2 |
| Cc1cc(Oc2ccc(OC(C)C)cc2)c(C)cc1N=CN(C)C [Compound 303] | 2 |
| Cc1cc(Oc2nc(-c3ccc(Cl)c(Cl)c3)cs2)c(C)cc1N=CN(C)C [Compound 351] | 2 |
| CCN(C)C=Nc1cc(C)c(Oc2cccc(C(F)(F)F)c2)cc1C [Compound 45, N-Ethyl-N-methyl-N′-[4-(3-trifluoromethylphenoxy)-2,5-xylyl]formamidine] | 2 |
| Cc1cc(Oc2nc(-c3ccccc3)ns2)c(C)cc1N=CN1CCCCC1 [Compound 246] | 2 |
| C=CCN(C)C=Nc1cc(C)c(Oc2cccc(C(C)(C)C)c2)cc1C [Compound 284] | 2 |
| Cc1cc(Oc2cccc(C(C)(C)C)c2)c(C)cc1N=CN(C)C(C)C [Compound 283] | 2 |

| Compound | score of 1 to 3 (control, degree of infection visually estimated) |
| --- | --- |
| COC(C)(C)c1cccc(Oc2cc(C)c(N=CN(C)C)cc2C)c1 [Compound 392] | 2 |
| Cc1cc(Oc2cccc(C(F)(F)F)c2)c(C)cc1N=CN1CCCC1 [Compound 41] | 2 |
| COc1cccc(Oc2cc(C)c(N=CN(C)C)cc2C)c1 [Compound 56] | 2 |
| Cc1cc(Oc2ccc(C(C)(C)C)cc2)c(C)cc1N=CN(C)C [Compound 61] | 2 |
| Cc1cc(OC(=O)c2sc3ccccc3c2Cl)c(C)cc1N=CN(C)C [Compound 160] | 2 |
| CCC(C)c1ccc(Oc2cc(C)c(N=CN(C)C)cc2C)cc1 (stereo not drawn) [Compound 130] | 2 |
| Cc1cc(Oc2cccc(C#N)c2)c(C)cc1N=CN(C)C [Compound 29] | 2 |
| CCN(C)C=Nc1cc(C)c(Oc2cccc(Oc3ccccc3)c2)cc1C [Compound 325] | 2 |
| CCN(C)C=Nc1cc(C)c(Oc2cccc(Cl)c2)cc1C [Compound 310] | 2 |
| Cc1cc(Oc2cccc(Cl)c2)c(C)cc1N=CN(C)C [Compound 7] | 2 |
| CCN(C=Nc1cc(C)c(Oc2cccc(C(F)(F)F)c2)cc1C)CC [Compound 37, N,N-Diethyl-N′-[4-(3-trifluoromethylphenoxy)-2,5-xylyl]formamidine] | 2 |
| Cc1cc(Oc2nc3cc(C(F)(F)F)ccc3s2)c(C)cc1N=CN(C)C [Compound 194] | 2 |
| CCc1ccc(Oc2cc(C)c(N=CN(C)C)cc2C)cc1 [Compound 181] | 2 |
| CCN(C)C=Nc1cc(C)c(Oc2ccc(C(C)C)cc2)cc1C [Compound 311] | 2 |
| Cc1cc(Oc2nc(-c3ccccc3)ns2)c(C)cc1N=CN(C)C [Compound 48, N,N-Dimethyl-N′-[4-(3-phenyl-1,2,4-thiadiazol-5-yloxy)-2,5-xylyl]formamidine] | 2 |
| C#CCOc1ccc(Oc2cc(C)c(N=CN(C)C)cc2C)cc1 [Compound 235] | 2 |
| Cc1cc(Oc2cccc(C(C)(C)C)c2)c(C)cc1N=CN(C)C [Compound 8] | 2 |
| Cc1cc(Oc2cccc(C(F)(F)F)c2)c(C)cc1N=CN1CCOCC1 [Compound 35] | 2 |
| Cc1cc(Oc2nc(-c3ccccc3)ns2)c(C(C)C)cc1N=CN(C)C [Compound 208] | 2 |
| COc1cc(N=CN(C)C)c(Br)cc1Oc1cccc(C(F)(F)F)c1 [Compound 15] | 2 |
| Cc1cc(Oc2nc(Br)ns2)c(C)cc1N=CN(C)C [Compound 72] | 2 |

From US6893650B1, “N2-phenylamidine derivatives” (Bayer Cropscience GmbH, priority 1999, dated 2005)
